One compound from BindingDB's records for doi:10.1021/jm960248s (Smithkline Beecham Pharmaceuticals, 1996) can be followed below.

Each structure is given as a SMILES string.

This assay addresses fMet-Leu-Phe receptor (Homo sapiens) (UniProt P21462). In words: Inhibitory concentration against fMLP receptor with [3H]- fMLP in receptor binding assay.

fMet-Leu-Phe receptor (Homo sapiens), sequence (P21462 whole entry, looked up): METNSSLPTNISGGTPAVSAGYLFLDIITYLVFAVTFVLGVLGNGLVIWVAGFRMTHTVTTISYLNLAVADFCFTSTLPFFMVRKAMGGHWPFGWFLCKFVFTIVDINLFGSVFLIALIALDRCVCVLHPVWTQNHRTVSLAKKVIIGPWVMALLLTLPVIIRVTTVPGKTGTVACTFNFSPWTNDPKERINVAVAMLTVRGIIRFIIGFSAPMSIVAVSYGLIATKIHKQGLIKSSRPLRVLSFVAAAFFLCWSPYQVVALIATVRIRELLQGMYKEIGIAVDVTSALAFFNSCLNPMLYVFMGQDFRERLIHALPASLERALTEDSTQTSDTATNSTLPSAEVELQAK

As for `O=C(O)/C=C/c1nc(CSc2c(Cl)cccc2Cl)ccc1OCCc1ccccc1` [Ticolubant], the IC50 – broadly, the concentration at which inhibition is half-maximal – turned out to be 3.25 µM.
